“And” between values parts separate entries of the source, which are not always exact repeats. Identical values can stand only once. Inconclusive results and toxic doses are left out.
System: P388 leukemia ip, CD2F1 mice, survival T/C
Experiment: NCI In Vivo Anticancer Drug Screen. Data for tumor model P388 Leukemia (intraperitoneal) in CD2F1 (CDF1) mice
Details: endpoint: median survival time, higher = longer survival
Outline: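 Mice carrying the transplanted tumor received test compound or vehicle. Survival was recorded in each group, and the value is the treated-group measurement divided by that of the vehicle-treated control group.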

[1] = dose: 50.0 mg/kg/injection, schedule: Q01DX005 (ip), vehicle: saline with Tween-80
[2] = dose: 100.0 mg/kg/injection, schedule: Q01DX005 (ip), vehicle: saline with Tween-80
[3] = dose: 60.0 mg/kg/injection, schedule: Q01DX005 (ip), vehicle: saline
[4] = dose: 120.0 mg/kg/injection, schedule: Q01DX005 (ip), vehicle: saline
[5] = dose: 240.0 mg/kg/injection, schedule: Q01DX005 (ip), vehicle: saline

## CNC(=S)N\N=C/C(/C=C/c1ccccc1)=N\NC(=S)NC
dose: 100.0 mg/kg/injection, schedule: Q01DX001 (ip), vehicle: Klucel (hydroxypropylcellulose) (HPC)
  T/C: 90 % of control
dose: 200.0 mg/kg/injection, schedule: Q01DX001 (ip), vehicle: Klucel (hydroxypropylcellulose) (HPC)
  T/C: 100 % of control

## COC1/C=C/OC2(C)Oc3c(C)c(O)c4c(c3C2=O)C(=O)c2cnc(nc2C4=O)/C(C)=C\C=C\C(C)C(O)C(C)C(O)C(C)C(OC(C)=O)C1C (stereo not drawn)
dose: 25.0 mg/kg/injection, schedule: Q01DX009 (ip), vehicle: other
  T/C: 93 % of control
dose: 50.0 mg/kg/injection, schedule: Q01DX009 (ip), vehicle: other
  T/C: 107 % of control
dose: 100.0 mg/kg/injection, schedule: Q01DX009 (ip), vehicle: other
  T/C: 116 % of control

## O=c1cc(-c2ccc(OCc3ccccc3)cc2)oc2ccccc12
[1]
  T/C: 92 % of control
[2]
  T/C: 87 % of control
dose: 200.0 mg/kg/injection, schedule: Q01DX005 (ip), vehicle: saline with Tween-80
  T/C: 86 % of control

## Brc1ncc2[nH]cnc2n1
[1]
  T/C: 99 % of control
[2]
  T/C: 100 % of control

## CCN(CC)CCNC(=O)c1cc(Cl)c(C(=O)NO)cc1OC
dose: 6.25 mg/kg/injection, schedule: Q01DX005 (ip), vehicle: Klucel (hydroxypropylcellulose) (HPC)
  T/C: 87 % of control
dose: 12.5 mg/kg/injection, schedule: Q01DX005 (ip), vehicle: Klucel (hydroxypropylcellulose) (HPC)
  T/C: 95 % of control
dose: 25.0 mg/kg/injection, schedule: Q01DX005 (ip), vehicle: Klucel (hydroxypropylcellulose) (HPC)
  T/C: 104 % of control

## COC(=O)Nc1nc2ccc(C(=O)OC)cc2[nH]1
dose: 100.0 mg/kg/injection, schedule: Q04DX003 (ip), vehicle: saline
  T/C: 102 % of control
dose: 200.0 mg/kg/injection, schedule: Q04DX003 (ip), vehicle: saline
  T/C: 103 % of control
dose: 400.0 mg/kg/injection, schedule: Q04DX003 (ip), vehicle: saline
  T/C: 103 % of control

## CCOC(=O)/C=C/CC1CCNC1 (stereo not drawn)
[3]
  T/C: 100 % of control
[4]
  T/C: 100 % of control
[5]
  T/C: 106 % of control

## CCc1c(O)c2c([nH]c1=O)SC(C)(C)CC2=NCC(C)C
dose: 50.0 mg/kg/injection, schedule: Q01DX005 (ip), vehicle: saline
  T/C: 93 % of control
dose: 100.0 mg/kg/injection, schedule: Q01DX005 (ip), vehicle: saline
  T/C: 96 % of control
dose: 200.0 mg/kg/injection, schedule: Q01DX005 (ip), vehicle: saline
  T/C: 94 % of control

## COc1cccc2c1C(=O)c1c(O)c3c(c(O)c1C2=O)C[C@@](O)(C(=O)COC(=O)Cc1ccccc1)C[C@@H]3OC1CC(N)C(O)C(C)O1 (stereo partly drawn)
dose: 1.0 mg/kg/injection, schedule: Q01DX009 (ip), vehicle: saline with Tween-80
  T/C: 166 % of control and 194 % of control
dose: 1.32 mg/kg/injection, schedule: Q01DX009 (ip), vehicle: saline sonified
  T/C: 195 % of control
dose: 2.0 mg/kg/injection, schedule: Q01DX009 (ip), vehicle: saline sonified
  T/C: 215 % of control
dose: 2.0 mg/kg/injection, schedule: Q01DX009 (ip), vehicle: saline with Tween-80
  T/C: 151 % of control and 166 % of control and 212 % of control
dose: 3.0 mg/kg/injection, schedule: Q01DX009 (ip), vehicle: saline sonified
  T/C: 270 % of control
dose: 16.0 mg/kg/injection, schedule: Q01DX009 (ip), vehicle: saline with Tween-80
  T/C: 105 % of control

## OCC1OC(OC2C(CO)OC(S)C(O)C2O)C(O)C(O)C1O (stereo not drawn)
dose: 50.0 mg/kg/injection, schedule: Q01DX009 (ip), vehicle: saline with Tween-80
  T/C: 98 % of control
dose: 100.0 mg/kg/injection, schedule: Q01DX009 (ip), vehicle: saline with Tween-80
  T/C: 92 % of control
dose: 200.0 mg/kg/injection, schedule: Q01DX009 (ip), vehicle: saline with Tween-80
  T/C: 92 % of control

## C=CCN=C([S-])Nc1cccc(C(=O)O)c1.[Au+].[Na+]
[3]
  T/C: 106 % of control
[4]
  T/C: 106 % of control
[5]
  T/C: 108 % of control

## CC(SSc1ccc(C(C)(C)C)cc1)c1ccccc1 (stereo not drawn)
dose: 50.0 mg/kg/injection, schedule: Q01DX005 (ip), vehicle: Klucel (hydroxypropylcellulose) (HPC)
  T/C: 96 % of control
dose: 100.0 mg/kg/injection, schedule: Q01DX005 (ip), vehicle: Klucel (hydroxypropylcellulose) (HPC)
  T/C: 104 % of control
dose: 200.0 mg/kg/injection, schedule: Q01DX005 (ip), vehicle: Klucel (hydroxypropylcellulose) (HPC)
  T/C: 109 % of control

## C[CH2][Ge]([CH2]C)[CH2]C.C[CH2][Ge]([CH2]C)[CH2]C.C[CH2][Ge]([CH2]C)[S][Ge]([CH2]C)[CH2]C
dose: 60.0 mg/kg/injection, schedule: Q01DX005 (ip), vehicle: saline with Tween-80
  T/C: 96 % of control
dose: 120.0 mg/kg/injection, schedule: Q01DX005 (ip), vehicle: saline with Tween-80
  T/C: 100 % of control
dose: 240.0 mg/kg/injection, schedule: Q01DX005 (ip), vehicle: saline with Tween-80
  T/C: 99 % of control

## CSc1ccc2ccccc2c1/C=[N+](/[O-])c1ccccc1
dose: 60.0 mg/kg/injection, schedule: Q01DX005 (ip), vehicle: Klucel (hydroxypropylcellulose) (HPC)
  T/C: 95 % of control
dose: 120.0 mg/kg/injection, schedule: Q01DX005 (ip), vehicle: Klucel (hydroxypropylcellulose) (HPC)
  T/C: 97 % of control
dose: 240.0 mg/kg/injection, schedule: Q01DX005 (ip), vehicle: Klucel (hydroxypropylcellulose) (HPC)
  T/C: 96 % of control

From PubChem BioAssay AID330 (DTP/NCI, 2004)
